Target: GST tagged truncated human mutant G2019S LRRK2 (Homo sapiens (Human), UniProt Q5S007, G2019S)
Test: LRRK2 Km ATP LanthaScreen Assay
Format: biochemical
Conditions: G2019S LRRK2, 134 μM ATP (Km ATP), mean values; for IC50: read-out: LRRK2 pIC50 (converted)
Method in brief: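 Enzyme (GST-tagged, truncated) was preincubated with compound for 15 min at RT in 50 mM Tris pH 8.5, 10 mM MgCl2, 0.01% Brij-35, 1 mM EGTA, 2 mM DTT and 0.05 mM orthovanadate. Fluorescein-LRRKtide and 134 μM ATP (Km) were then added for 90 min. EDTA and Tb-anti-pERM antibody stopped the reaction; the TR-FRET 520/495 ratio gave 4-parameter IC50s, reported as mean pIC50.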

GST tagged truncated human mutant G2019S LRRK2, sequence (Q5S007 970-2527 G2019S): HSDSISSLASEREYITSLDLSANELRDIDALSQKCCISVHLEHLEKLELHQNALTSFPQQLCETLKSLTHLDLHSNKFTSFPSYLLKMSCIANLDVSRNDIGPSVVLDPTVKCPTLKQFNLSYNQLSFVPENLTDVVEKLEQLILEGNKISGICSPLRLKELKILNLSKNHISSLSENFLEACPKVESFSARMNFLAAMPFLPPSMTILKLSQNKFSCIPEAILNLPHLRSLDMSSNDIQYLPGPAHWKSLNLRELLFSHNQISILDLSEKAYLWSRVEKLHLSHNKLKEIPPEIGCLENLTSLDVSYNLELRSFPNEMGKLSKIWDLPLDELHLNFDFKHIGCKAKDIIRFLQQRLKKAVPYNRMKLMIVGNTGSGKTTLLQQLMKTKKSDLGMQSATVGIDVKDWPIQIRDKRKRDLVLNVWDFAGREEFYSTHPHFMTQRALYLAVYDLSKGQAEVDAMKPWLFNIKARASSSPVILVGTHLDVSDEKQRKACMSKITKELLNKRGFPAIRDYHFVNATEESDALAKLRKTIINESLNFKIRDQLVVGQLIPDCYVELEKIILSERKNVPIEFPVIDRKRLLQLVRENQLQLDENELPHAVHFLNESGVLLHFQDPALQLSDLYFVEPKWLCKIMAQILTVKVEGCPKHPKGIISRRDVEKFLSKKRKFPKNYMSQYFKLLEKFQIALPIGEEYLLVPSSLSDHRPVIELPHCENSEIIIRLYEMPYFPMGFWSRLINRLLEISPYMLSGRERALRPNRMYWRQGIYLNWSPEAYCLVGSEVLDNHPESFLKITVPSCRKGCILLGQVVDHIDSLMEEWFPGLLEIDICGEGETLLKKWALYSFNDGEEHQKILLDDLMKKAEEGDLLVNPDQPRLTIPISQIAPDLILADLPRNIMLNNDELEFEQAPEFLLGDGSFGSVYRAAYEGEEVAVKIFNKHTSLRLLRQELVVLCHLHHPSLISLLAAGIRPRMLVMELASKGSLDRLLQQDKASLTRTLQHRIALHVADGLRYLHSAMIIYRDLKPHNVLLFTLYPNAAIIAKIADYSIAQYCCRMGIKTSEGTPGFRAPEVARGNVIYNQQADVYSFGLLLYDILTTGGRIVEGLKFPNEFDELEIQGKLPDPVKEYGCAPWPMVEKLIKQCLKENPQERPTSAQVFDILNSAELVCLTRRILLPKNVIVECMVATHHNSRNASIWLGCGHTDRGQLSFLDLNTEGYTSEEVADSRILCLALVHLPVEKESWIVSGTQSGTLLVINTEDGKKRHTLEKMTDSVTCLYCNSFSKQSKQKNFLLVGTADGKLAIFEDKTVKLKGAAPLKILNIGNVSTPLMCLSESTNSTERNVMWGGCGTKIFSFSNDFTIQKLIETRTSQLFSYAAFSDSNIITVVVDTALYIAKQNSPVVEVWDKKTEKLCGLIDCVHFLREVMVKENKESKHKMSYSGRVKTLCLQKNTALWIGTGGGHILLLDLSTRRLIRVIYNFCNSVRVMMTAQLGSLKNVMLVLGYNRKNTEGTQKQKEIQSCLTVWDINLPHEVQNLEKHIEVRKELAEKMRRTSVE

| Structure (SMILES) | LRRK2 pIC50 | IC50 |
| --- | --- | --- |
| Cc1cc2cnc(Nc3cnn(C45CC(C4)C5)c3C)nc2cc1[C@@H]1CCN([C@@H]2COC[C@@H]2O)C[C@H]1F (single isomer, unassigned) [Ex-4.165, (3S,4S)(3S,4S) or (3S,4S)(3R,4R) or (3R,4R)(3S,4S) or (3R,4R)(3R,4R) 4-[4-(2-{[1-(bicyclo[1.1.1]pentan-1-yl)-5-methyl-1H-pyrazol-4-yl]amino}-6-methylquinazolin-7-yl)-3-fluoropiperidin-1-yl]oxolan-3-ol] | 8.67 | – |
| Cc1cc2cnc(Nc3cnn(C4(C)CC4)c3C)nc2cc1C1CCN(CCC#N)CC1 [Ex-5.1, 3-(4-(6-methyl-2-((5-methyl-1-(1-methylcyclopropyl)-1H-pyrazol4-yl)amino)quinazolin-7-yl)piperidin-1-yl)propanenitrile] | – | < 0.631 nM |
| CC1(O)CCC(c2cc3nc(Nc4cnn(C5CC5)c4Cl)ncc3cc2Cl)CC1 (stereo not drawn) [Ex-1.17, cis-or trans-4-(6-chloro-2-((5-chloro-1-cyclopropyl-1H-pyrazol-4-yl)amino)quinazolin-7-yl)-1-methylcyclohexan-1-ol] | 8.58 | – |
| Cc1c(Nc2ncc3cc(Cl)c(C4CCN(CC(C)(C)O)CC4)cc3n2)cnn1C1CC1 [Ex-4.217, 1-(4-{6-chloro-2-[(1-cyclopropyl-5-methyl-1H-pyrazol-4-yl)amino]quinazolin-7-yl}piperidin-1-yl)-2-methylpropan-2-ol] | 8.57 | – |
| CC1(N2CCC(c3cc4nc(Nc5cnn(C67CC(CN8CC(F)(F)C8)(C6)C7)c5)ncc4cc3Cl)CC2)COC1 [Ex-2.60, 6-chloro-N-(1-{3-[(3,3-difluoroazetidin-1-yl)methyl]bicyclo[1.1.1]pentan-1-yl}-1H-pyrazol-4-yl)-7-[1-(3-methyloxetan-3-yl)piperidin-4-yl]quinazolin-2-amine] | >9.20 | – |
| Cc1cc2cnc(Nc3cnn(C4CC4)c3Cl)nc2cc1C1CCN([C@]2(C)COC[C@@H]2O)CC1 (single isomer, unassigned) [Ex-2.37, (3S,4S) or (3R,4R) 4-(4-{2-[(5-chloro-1-cyclopropyl-1H-pyrazol-4-yl)amino]-6-methylquinazolin-7-yl}piperidin-1-yl)-4-methyloxolan-3-ol] | 7.78 | – |
| Cc1cc(Nc2ncc3cc(C)c([C@@H]4CCN([C@@H]5COC[C@@H]5O)C[C@H]4F)cc3n2)n(C)n1 (single isomer, unassigned) [Ex-5.9, (3S,4S)(3S,4S) or (3S,4S)(3R,4R) or (3R,4R)(3S,4S) or (3R,4R)(3R,4R) 4-(4-{2-[(1,3-dimethyl-1H-pyrazol-5-yl)amino]-6-methylquinazolin-7-yl}-3-fluoropiperidin-1-yl)oxolan-3-ol] | 8.49 | – |
| Cc1cc2cnc(Nc3cnn(CC(C)(C)O)c3Cl)nc2cc1[C@@H]1CCN(C2COC2)C[C@H]1F (single isomer, unassigned) [Ex-4.81, (3S,4S) or (3R,4R) 1-[5-chloro-4-({7-[3-fluoro-1-(oxetan-3-yl)piperidin-4-yl]-6-methylquinazolin-2-yl}amino)-1H-pyrazol-1-yl]-2-methylpropan-2-ol] | 9.13 | – |
| O[C@H]1COC[C@H]1N1CCC(c2cc3nc(Nc4cnn(C56CC(C5)C6)c4)ncc3cc2Cl)CC1 (single isomer, unassigned) [Ex-4.151, (3S,4S) or (3R,4R) 4-[4-(2-{[1-(bicyclo[1.1.1]pentan-1-yl)-1H-pyrazol-4-yl]amino}-6-chloroquinazolin-7-yl)piperidin-1-yl]oxolan-3-ol] | 8.98 | – |
| Cc1c(Nc2ncc3cc(Cl)c(C4CCN(C5COCC5F)CC4)cc3n2)cnn1C1CC1 (single isomer, unassigned) [Ex-7.4, (3S,4S) or (3R,4R) or (3S,4R) or (3R,4S) 6-chloro-N-(1-cyclopropyl-5-methyl-1H-pyrazol-4-yl)-7-[1-(4-fluorooxolan-3-yl)piperidin-4-yl]quinazolin-2-amine] | >9.20 | – |
| Cc1c(Nc2ncc3cc(Cl)c([C@H]4CCN(C5COC5)C[C@@H]4F)cc3n2)cnn1CC(C)(C)O (single isomer, unassigned) [Ex-4.64, (3S,4S) or (3R,4R) 1-[4-({6-chloro-7-[3-fluoro-1-(oxetan-3-yl)piperidin-4-yl]quinazolin-2-yl}amino)-5-methyl-1H-pyrazol-1-yl]-2-methylpropan-2-ol] | 8.85 | – |
| CN1CCC(c2cc3nc(Nc4cnn(C(C)(C)CO)c4Cl)ncc3cc2Cl)CC1 [Ex-8.11, 2-(5-chloro-4-{[6-chloro-7-(1-methylpiperidin-4-yl)quinazolin-2-yl]amino}-1H-pyrazol-1-yl)-2-methylpropan-1-ol] | 8.91 | – |
| CO[C@@H]1COC[C@]1(C)N1CCC(c2cc3nc(Nc4cnn(C5CC5)c4C)ncc3cc2Cl)CC1 (single isomer, unassigned) [Ex-7.3, (3S,4S) or (3R,4R) 6-chloro-N-(1-cyclopropyl-5-methyl-1H-pyrazol-4-yl)-7-(1-(4-methoxy-3-methyltetrahydrofuran-3-yl)piperidin-4-yl)quinazolin-2-amine] | – | 11.7 nM |
| CC1(N2CC3(CC(n4cc(Nc5ncc6cc(Cl)c(C7CC78CC8)cc6n5)cn4)C3)C2)COC1 (single isomer, unassigned) [Ex-2.7, (S) or (R) 6-chloro-N-{1-[2-(3-methyloxetan-3-yl)-2-azaspiro[3.3]heptan-6-yl]-1H-pyrazol-4-yl}-7-(spiro[2.2]pentan-1-yl)quinazolin-2-amine] | – | 0.813 nM |
| CC(n1ncc(Nc2ncc3cc(Cl)c(C4CCN(C5COC5)CC4)cc3n2)c1Cl)C(C)(C)O (single isomer, unassigned) [Ex-4.67, (S) or (R) 3-[5-chloro-4-({6-chloro-7-[1-(oxetan-3-yl)piperidin-4-yl]quinazolin-2-yl}amino)-1H-pyrazol-1-yl]-2-methylbutan-2-ol] | – | < 0.631 nM |
| CC(C)(O)Cn1ncc(Nc2ncc3cc(Cl)c([C@H]4CCN(C5COC5)C[C@@H]4F)cc3n2)c1Cl (single isomer, unassigned) [Ex-4.44, (3S,4S) or (3R,4R) 1-[5-chloro-4-({6-chloro-7-[3-fluoro-1-(oxetan-3-yl)piperidin-4-yl]quinazolin-2-yl}amino)-1H-pyrazol-1-yl]-2-methylpropan-2-ol] | >9.20 | – |
| Cc1c(Nc2ncc3cc(Cl)c(C4CCN(CC(O)Cc5ccccc5)CC4)cc3n2)cnn1C1CC1 (single isomer, unassigned) [Ex-4.219, (S) or (R) 1-(4-{6-chloro-2-[(1-cyclopropyl-5-methyl-1H-pyrazol-4-yl)amino]quinazolin-7-yl}piperidin-1-yl)-3-phenylpropan-2-ol] | – | 4.68 nM |
| N#CCCN1CCC(c2cc3nc(Nc4cnn(C5CC5)c4Cl)ncc3cc2Cl)CC1 [Ex-8.6, 3-(4-{6-chloro-2-[(5-chloro-1-cyclopropyl-1H-pyrazol-4-yl)amino]quinazolin-7-yl}piperidin-1-yl)propanenitrile] | 8.17 | – |
| N#CC1CCC(N2CC[C@@H](c3cc4nc(Nc5cnn(C6CC6)c5Cl)ncc4cc3Cl)[C@H](F)C2)C1 (single isomer, unassigned) [Ex-4.108, (1R,3S)-3-((3S,4S) or (1S,3R)-3-((3S,4S) or (1R,3R)-3-((3S,4S) or (1S,3S)-3-((3S,4S) or (1R,3S)-3-((3R,4R) or (1S,3R)-3-((3R,4R) or (1R,3R)-3-((3R,4R) or 1S,3S)-3-((3R,4R) 4-(6-chloro-2-((5-chloro-1-cyclopropyl-1H-pyrazol-4-yl)amino)quinazolin-7-yl)-3-fluoropiperidin-1-yl)cyclopentane-1-carbonitrile] | 8.49 | – |
| Cc1cc(Nc2ncc3cc(Cl)c(C4CCN([C@@H]5COC[C@@H]5O)CC4)cc3n2)n(C2CC2)n1 (single isomer, unassigned) [Ex-2.75, (3S,4S) or (3R,4R)4-(4-{6-chloro-2-[(1-cyclopropyl-3-methyl-1H-pyrazol-5-yl)amino]quinazolin-7-yl}piperidin-1-yl)oxolan-3-ol] | 8.63 | – |
| F[C@H]1CN(C2COC2)CC[C@@H]1c1cc2nc(Nc3cnn(C4CC4)c3Cl)ncc2cc1Cl (single isomer, unassigned) [Ex-4.35, (3S,4S) or (3R,4R) 6-chloro-N-(5-chloro-1-cyclopropyl-1H-pyrazol-4-yl)-7-[3-fluoro-1-(oxetan-3-yl)piperidin-4-yl]quinazolin-2-amine] | >9.20 | – |
| N#CC1(CN2CCC(c3cc4nc(Nc5cnn(C6CC6)c5Cl)ncc4cc3Cl)CC2)CC1 [Ex-4.78, 1-[(4-{6-chloro-2-[(5-chloro-1-cyclopropyl-1H-pyrazol-4-yl)amino]quinazolin-7-yl}piperidin-1-yl)methyl]cyclopropane-1-carbonitrile] | 7.95 | – |
| Clc1cc2cnc(Nc3cnn(CC4CC4)c3Cl)nc2cc1C1CCN(C2COC2)CC1 [Ex-4.16, 6-chloro-N-[5-chloro-1-(cyclopropylmethyl)-1H-pyrazol-4-yl]-7-[1-(oxetan-3-yl)piperidin-4-yl]quinazolin-2-amine] | >9.20 | – |
| Cc1cc(Nc2ncc3cc(Cl)c([C@H]4CCN(C)C[C@@H]4F)cc3n2)sn1 (single isomer, unassigned) [Ex-4.53, (3S,4S) or (3R,4R) 6-chloro-7-(3-fluoro-1-methylpiperidin-4-yl)-N-(3-methyl-1,2-thiazol-5-yl)quinazolin-2-amine] | >9.20 | – |
| C[C@@]1(N2CCC(c3cc4nc(Nc5ccnn5C5CC5)ncc4cc3Cl)CC2)COC[C@@H]1O (single isomer, unassigned) [Ex-2.85, (3S,4S) or (3R,4R) 4-(4-{6-chloro-2-[(1-cyclopropyl-1H-pyrazol-5-yl)amino]quinazolin-7-yl}piperidin-1-yl)-4-methyloxolan-3-ol] | 9.03 | – |

From patent US12540131B2 (Merck Sharp & Dohme LLC, priority 2019, dated 2026)
